According to US20040029208A1, “Assay method and kit for testing biological material for exposure to stress using biomarkers” (priority 2000, published 2004):

What was measured:
Type in all cases: in vivo
Anagallis arvensis [1] = assay: TLC plant biomarker pattern after herbicide spraying (greenhouse)
Procedure: (§1) The experiments were performed in the green-house at the National Environmental Research Institute, Silkeborg, Denmark. All the seeds needed light to germinate, and were sown at the soil surface in individual 11 cm pots. The soil used during the experiments contained: (SM Growing Mould (Growing medium by special soil (sphagnum) added clay granulate), 0-30 mm; grade of turnover 55-75; added per m^3: 3 kg lime (white chalk), 1.5 kg dolit chalk, 40 kg clay granulate; Fertilizer added granulate: NO3-N: 55.0 g; NH4-N: 65.0 g; P: 106.6 g; K: 224.0 g; Mg: 22 g; Micro nutrients added in chelate form, Mo in uorganic form: B-Boron: 1 g; Cu-copper: 6 g; Mn-Manganese: 3 g; Zinc-Zn: 3 g: Fe-iron: 6 g; Mo- molybdenum: 1.4 g).
(§2) During the experiments plants were watered from below, and the temperature in the green-house was maintained between 15° C. and 25° C. with variations due to external weather, and the photoperiod was 16th daylight. The green-house is divided into different units, which allowed for the separate maintenance of the control plants from the sprayed plants to avoid undesirable effects due to vapour drift.
(§3) Glyphosate (Roundup Bio (360 g L^−1) was supplied by Monsanto Denmark A/S. Recommended field dose=1,44 kg a.i. ha^−1. In all the experiments, an automatic sprayer (designed in Denmark by Jens Kristensen 1994) was used where the herbicide application is achieved by moving boom equipment with two ordinary hydraulic flat fan nozzles (Hardi 4110-16). Two pots per spray event were placed in the middle of the spray chamber at 50 cm distance from the nozzle, delivering 200 L of water per-hectare with a desired herbicide concentration (working pressure 2 bars; speed of spray boom=4.7 km h^−1). The spraying was performed starting with the lowest concentration first, progressing towards the highest concentration. Between each herbicide, the sprayer was thoroughly rinsed several times with water. The control plants were sprayed with water.
(§4) The fresh plant material was pressed using a hand press. The extract was immediately centrifuged. (3000 rpm) for 10 minutes. The supernatant was used for analysis. The extracts were kept cool or right above 0° C. during the test to avoid decomposition of biomarkers.
(§5) Freeze-dried plant material was crushed and 250 mg was extracted with 5.00 ml 75% ethanol in an ultrasonic bath for 2 hours. The temperature was kept <0° C. (using ice) during the extraction to avoid decomposition of biomarkers. The extract was centrifuged (3000 rpm) for 10 minutes. The supematant was used for analysis and were kept cool during the test to avoid decomposition of biomarkers.
(§6) The two extracts (freshtfresh ethanol) were applicated immediately on a TLC plate (10 μl on both TLC-Plate types (see below) using cool air-drying. The 75% ethanolic extract was applicated 10 μl on Silica-gel TLC-plates and 5 μl on Cellulose TLC-plates (see below). The fresh/fresh ethanolic extractsare recommended to perform if fresh plant material are to be analysed (field-test). The freeze-dried or frozen plant material extraction Is recommended if the analysis are performed in the laboratory.
[…] Derivatisation: Stock solution 1:50% sulfuric acid in 96% ethanol; Stock solution 2: 2% vanillin in absolut alcohol; Derivatisation-solvent, Fresh produced before us, stock solution 1 and stock solution 2 (1:10); Aftercare: 120° C. in 2-3 min. The plate is valuated visually. The system detects higher alcoholics, phenolic compounds, steroids and etheric oils (Stahl 1969), terpenoids, phenyl propanolds, phenolic compounds (Wagner etea. 1984)
TLC-System 7: HPTLC-Alufolie Silica Gel 60 F2u, Merck 1.05548 (10×10 cm); 10 μl plant extracts plants exposed to glyphosate and control plants; eluted in n-butanol: acetic acid: water (4:1:5) (upper phase after 5 minutes shaking). Derivatisation: 0,5 g p-anisaldehyde diluted in 10 ml conc. acetic acid and 85 ml absolute alcohol is and 5 ml conc. sulfuric acid (added in the following row). The plate is heated to. […]

Centauréa cýanus [2] = assay: as above
Lólium perénne [3] = assay: as above; settings: TLC 1 (non-specific compounds)
Procedure: as §1, §2, §3, §4, §5, §6
(§7) TLC-System 1: HPTLC-Alufolie Silica Gel 60 F254, Merck 1.05548 (10×10 cm); 10 μl plant extracts plants exposed to glyphosate and control plants; eluted in n-butanol acetic acid: water (4:1:5) (upper phase after 5 minutes shaking). Derivatisation: Stock solution 1:50% sulfuric acid in 96% ethanol; Stock solution 2: 2% vanillin in absolut alcohol; Derivatisation-solvent, Fresh produced before us, stock solution 1 and stock solution 2 (1:10); Aftercare: 120° C. in 2-3 min. The plate is valuated visually. The system detects higher alcoholics, phenolic compounds, steroids and etheric oils (Stahl 1969), terpenoids, phenyl propanolds, phenolic compounds (Wagner etea. 1984) […]

Lólium perénne [4] = assay: as above
Plantágo lanceoláta [5] = assay: as above
Procedure: as §1, §2, §3, §4, §5, §6, §7

Anagallis arvensis [6] = assay: Visual effect rating (0-9) after herbicide spraying; settings: at presence of TLC 7 biomarker
Excerpt: (§8) Four, eight, sixteen and thirty two days after spraying, visual effects on plants were noted before harvest, using the rating chart described in Hamil. et al. (1977) and Boutin et al. (1993); a rating of zero indicates full growth and vigour, and a rating of nine indicates no growth/mortality.
(§9) The min. visual effect (VE) of the presence of plant biomarkers is rated as described by Hamil et al., (1977) and Boutin et al. (1993).

Centauréa cýanus [7] = assay: as above
Excerpt: as §8, §9

Lólium perénne [8] = assay: as above
Excerpt: as §8, §9

Plantágo lanceoláta [9] = assay: as above
Excerpt: as §8, §9

[10] = at presence of TLC 4d biomarker

Compound	Min. of label dose of herbicide with effect (Anagallis arvensis [1]; TLC 7 (non-specific compounds)) [%]	Min. of label dose of herbicide with effect (Centauréa cýanus [2]; TLC 2 (phenolic compounds)) [%]	Min. of label dose of herbicide with effect (Centauréa cýanus [2]; TLC 7 (non-specific compounds)) [%]	Min. of label dose of herbicide with effect (Lólium perénne [4]; TLC 6 (lipids and terpens)) [%]	Min. of label dose of herbicide with effect (Centauréa cýanus [2]; TLC 4d (amino acids)) [%]	Min. of label dose of herbicide with effect (Plantágo lanceoláta [5]; TLC 2 (phenolic compounds)) [%]	Min. of label dose of herbicide with effect (Plantágo lanceoláta [5]; TLC 6 (lipids and terpens)) [%]	Min. of label dose of herbicide with effect (Plantágo lanceoláta [5]; TLC 4d (amino acids)) [%]	Min. visual effect (Anagallis arvensis [6])	Min. visual effect (Lólium perénne [8]; at presence of TLC 7 biomarker)	Min. visual effect (Lólium perénne [8]; [10])	Min. visual effect (Plantágo lanceoláta [9]; at presence of TLC 2 biomarker)	Min. visual effect (Plantágo lanceoláta [9]; at presence of TLC 6 biomarker)	Min. of label dose of herbicide with effect (Lólium perénne [4]; TLC 7 (non-specific compounds)) [%]	further results
Bromoxynil	1	10	1	10											Min. of label dose of herbicide with effect (Anagallis arvensis [1]; TLC 6 (lipids and terpens)): 1%; Min. of label dose of herbicide with effect (Lólium perénne [3]): 1%
COC(=O)c1ccccc1S(=O)(=O)NC(=O)Nc1nc(C)nc(OC)n1 [Metsulfuron methyl]	1	1	1	10	1	1	10	1	1	0	0	0	2	10	Min. of label dose of herbicide with effect (Centauréa cýanus [2]; TLC 6 (lipids and terpens)): 1%; Min. of label dose of herbicide with effect (Plantágo lanceoláta [5]; TLC 1 (non-specific compounds)): 1%; Min. of label dose of herbicide with effect (Plantágo lanceoláta [5]; TLC 7 (non-specific compounds)): 10%; Min. visual effect (Centauréa cýanus [7]; at presence of TLC 6 biomarker): 0; Min. visual effect (Centauréa cýanus [7]; at presence of TLC 7 biomarker): 0; Min. visual effect (Lólium perénne [8]; at presence of TLC 1 biomarker): 0; Min. visual effect (Lólium perénne [8]; at presence of TLC 6 biomarker): 0; Min. visual effect (Plantágo lanceoláta [9]; at presence of TLC 1 biomarker): 0; Min. visual effect (Plantágo lanceoláta [9]; at presence of TLC 7 biomarker): 3
CCC(CC)Nc1c([N+](=O)[O-])cc(C)c(C)c1[N+](=O)[O-] [Pendimethalin]	10	1			1	1	1	1	3	0	0	0	0	1	Min. of label dose of herbicide with effect (Anagallis arvensis [1]; TLC 1 (non-specific compounds)): 10%; Min. of label dose of herbicide with effect (Anagallis arvensis [1]; TLC 4d (amino acids)): 1%; Min. visual effect (Centauréa cýanus [7]; at presence of TLC 2 biomarker): 0; Min. visual effect (Centauréa cýanus [7]; [10]): 0; Min. visual effect (Plantágo lanceoláta [9]; [10]): 0; Days after exposure (biomarker present) (Lólium perénne [4]; TLC 7 (non-specific compounds)): 8, 16 days; Days after exposure (biomarker present) (Lólium perénne [4]; TLC 4d (amino acids)): 4, 8, 16, 32 days; Min. of label dose of herbicide with effect (Lólium perénne [4]; TLC 4d (amino acids)): 1%
